The values that follow come from US5843941A, “Ras farnesyl transferase inhibitors” (Genentech, Inc., priority 1994, dated 1998).

Read-outs that look alike come from different tables or passages of the source.

One assay addresses T1, CAAX GG transferase (Rattus norvegicus, UniProt P53610+Q04631).
T1 construct: partially purified CAAX GG transferase; from tissue
Put plainly: Inhibition of CAAX GG transferase (geranylgeranyltransferase). Conditions: 31B (leucine) vs 27B (methionine); FIG. 2B. It is filed as biochemical. An excerpt: FIG. 1 compares the inhibitory activity of compound 27B (denoted as BG269B in the figure) on protein prenyltransferases. […] Two other prenyltransferases, both of which transfer 20-carbon geranylgeranyl (GG) groups, have been identified in rat brain. One of thesse, CAAX GG transferase, attaches GG groups to proteins that terminate in CAAX sequences in which X is leucine.
The conditions used to assay the inhibition of CAAX farnesyltransferase are identical to those described above for the in vitro, assay described in Example 121. In FIG. 1B the assay mixture contained, in a final volume of 50 μl, 50 mM sodium Hepes (pH 7.2), 5 mM MgC12, 5 mM DTT, 0.3 mM Nonidet P-40, 0.2% octyl β-glucoside, 1% DMSO, 0.5 μM all trans [3H]geranylgeranyl pyrophosphate (33,000 dpm/pmol; ARC, Inc.), 5 μM recombinant p21^H-rasCVLL, 6.3 μg partially purified CAAX GG transferase (see Seabra, M. C., Reiss, Y., Casey, P. J., Brown, M. S., and Goldstein, J. L. Cell 268, 4055 (1993)) and varying concentrations of the indicated inhibitor. In FIG. 1C, the assay mixture contained in a final volume of 50 μl, 50 mM sodium Hepes (pH 7.2), 5 mM MgCl2, 5 mM DTT, 0.3 mM Nonidet P-40, 0.2% octyl β-D-glucoside, 1% DMSO, 0.5 μM all trans [3H]geranylgeranyl pyrophosphate (33,000 dpm/pmol; ARC, Inc.), 2 μM recombinant Rab1A, 2 ng each of purified Components A and B of Rab GG transferase (see Seabra, M. C., Goldstein, J. L., Sudhof, T. C., and Brown, M. S. J. Biol. Chem. 267, 14497 (1992)) and varying concentrations of the indicated inhibitor.
Each assay was carried out as described in Examples 121 and 122.

The subject of assay [1] is farnesylated proteins F1, F2 and F3 in Met18b-2 cells. The assay is described as follows: Inhibition of intracellular farnesylation in intact Met18b-2 cells, Triton-soluble proteins F1, F2, F3. It is filed as cell-based, Chinese hamster. The source says: (§1) To study farnesylation in intact cells we used Met18b-2 cells, a line of Chinese hamster ovary (CHO) cells that takes up [3H]mevalonate efficiently (see Faust, J., and Krieger, M. J. Biol. Chem. 262, 1966 (1987)) owing to the production of a mevalonate transport protein (see Kim, C. M., Goldstein, J. L., Brown, M. S. J. Biol. Chem. 267, 23113 (1992)). The [3H]mevalonate is converted by the cells into [3H]farnesyl pyrophosphate and [3H]geranylgeranyl pyrophosphate, which are then attached to proteins (Kim, C. M., Goldstein, J. L., Brown, M. S. J. Biol. Chem. 267, 23113 (1992)). In the assay, stock cultures of Met18b-2 cells were seeded at a density of 3-105 cells per 60 mm dish in 3 ml of medium A (Dulbecco's modified Eagle medium/Ham's F12 medium (1:1, v/v) containing 100 U/ml penicillin and 100 μg/ml streptomycin) supplemented with 5% (v/v) fetal calf serum (FCS). On day 3, each monolayer was refed with 1 ml medium A supplemented with 1% FCS (dialyzed against 0.15 M NaCl). At this point the cells were treated with 100 μM compactin (see Brown, M. S., Faust, J. R., Goldstein, J. L., Kaneko, I., and Endo, A. J. Biol. Chem. 253, 1121 (1978)) which blocks the synthesis of unlabeled mevalonate within the cells. Each compound was dissolved at 25 mM in DMSO/10 mM DTT immediately before use and 10 μl of this solution added directly. After 2 hr incubation at 37° C., each monolayer received 100 μCi [3H]mevalonate (60 Ci/mmol, American Radiolabeled Chemicals, Inc.) added in 100 μl of the medium A, and the incubation continued for 4 hr. The cells were harvested by rinsing three times with 3 ml of 50 mM Tris-HCl/0.15 M NaCl (pH 7.5). 300 μl of lysis buffer (0.5X Dulbecco's phosphate-buffered saline containing 1% Triton X-100, 5 μg/ml leupeptin, 5 μg/ml pepstatin, 0.5 mM phenylmethylsulfonyl fluoride, and 0.05 U/ml aprotinin) was added to each monolayer. After incubation on ice for 5 mon, the lysates were centrifuged 30 sec in a microfuge at 12,000 g. The resulting supernatant was tranferred to a new tube, and each pellet was resuspended in 60 μl of lysis buffer. Protein concentrations were determined using the BCA protein assay reagent (Pierce) according to the manufacturer's instructions. Detergent-soluble (supernatant) and -insoluble (pellet) samples were mixed with 2X SDS sample buffer (see Laemmli, U. K. Nature 227, 680 (1970)) and heated at 95° C. for 5 min before electrophoresis. Each lane contained 90 μg protein, and was run on a 12.5% SDS-polyacrylamide gel. The gel was dried, treated with ENTENSIFY (NEN-DuPont), and exposed to Kodak XOMAT-AR film for 9 h at -80° C. to allow visualization of all prenylated proteins. Migration of [14C]methylated molecular weight standards (Amersham) were used as markers.
The results of this assay are shown in FIG. 3, using a final concentration of 250 μM for each inhibitor. […] As shown in the figure, none of the control peptides or control benzodiazepine-peptideomimetics altered the prenylation of proteins in intact cells.
Using the same cells and procedures followed above for Example 125, we measured the dose dependence upon the inhibition of farnesylation in intact cells. […] Compound 37B inhibited the famesylation of F1-3 detectably at 10 μM, and almost completely at 25 μM.
In this manner, it is possible to obtain data regarding the comparative potency of these inhibitors upon the level of intracellular farnesylation. We have chosen to report the EC90% values for these inhibitors as the concentration required for a reduction in the Triton- soluble labelling (denoted F-1, F-2, and F-3) to 90% of control cells (untreated).

Assay [2] relates to nuclear lamins A and B in Met18b-2 cells. The assay is described as follows: [3H]mevalonate labeling of farnesylated nuclear lamins in Met18b-2 cells. It is filed as cell-based, Chinese hamster. The conditions noted are these: 250 μM; FIG. 3. The source says:
To study farnesylation in intact cells we used Met18b-2 cells, a line of Chinese hamster ovary (CHO) cells that takes up [3H]mevalonate efficiently (see Faust, J., and Krieger, M. J. Biol. Chem. 262, 1966 (1987)) owing to the production of a mevalonate transport protein (see Kim, C. M., Goldstein, J. L., Brown, M. S. J. Biol. Chem. 267, 23113 (1992)). The [3H]mevalonate is converted by the cells into [3H]farnesyl pyrophosphate and [3H]geranylgeranyl pyrophosphate, which are then attached to proteins (Kim, C. M., Goldstein, J. L., Brown, M. S. J. Biol. Chem. 267, 23113 (1992)). In the assay, stock cultures of Met18b-2 cells were seeded at a density of 3-105 cells per 60 mm dish in 3 ml of medium A (Dulbecco's modified Eagle medium/Ham's F12 medium (1:1, v/v) containing 100 U/ml penicillin and 100 μg/ml streptomycin) supplemented with 5% (v/v) fetal calf serum (FCS). On day 3, each monolayer was refed with 1 ml medium A supplemented with 1% FCS (dialyzed against 0.15 M NaCl). At this point the cells were treated with 100 μM compactin (see Brown, M. S., Faust, J. R., Goldstein, J. L., Kaneko, I., and Endo, A. J. Biol. Chem. 253, 1121 (1978)) which blocks the synthesis of unlabeled mevalonate within the cells. […] Protein concentrations were determined using the BCA protein assay reagent (Pierce) according to the manufacturer's instructions. […]

In assay [3] the test system is low molecular weight GTP binding proteins (SMG) in Met18b-2 cells. Put plainly: [3H]mevalonate labeling of low molecular weight GTP binding proteins (SMG) in Met18b-2 cells. It is filed as cell-based, Chinese hamster. The conditions noted are these: 250 μM; FIG. 3.
Source text: as §1, with “The resulting supernatant was tranferred to a new tube, and each pellet was resuspended in 60 μl of lysis buffer.” left out, “Detergent-soluble (supernatant) and -insoluble (pellet) samples were mixed with 2X SDS sample buffer (see Laemmli, U. K. Nature 227, 680 (1970)) and heated at 95° C. for 5 min before electrophoresis. Each lane contained 90 μg protein, and was run on a 12.5% SDS-polyacrylamide gel. The gel was dried, treated with ENTENSIFY (NEN-DuPont), and exposed to Kodak XOMAT-AR film for 9 h at -80° C. to allow visualization of all prenylated proteins. Migration of [14C]methylated molecular weight standards (Amersham) were used as markers.” left out

The target in a further assay is CAAX farnesyltransferase (Rattus norvegicus, UniProt Q02293+Q04631). The assay is described as follows: In vitro inhibition of CAAX farnesyltransferase. It is filed as biochemical. Further details: purified to homogeneity from rat brain homogenates; from tissue; host or cells: rat brain; alternatively recombinant enzyme from a baculovirus expression system. The conditions noted are these: Table D. The gist of the method: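 Native or recombinant (baculovirus-infected cells, Q-Sepharose purified) farnesyltransferase incubated 30 min at 37 °C. [3H]farnesyl transfer to p21H-ras measured by SDS/trichloroacetic acid precipitation, nitrocellulose filtration and scintillation counting.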
Sequence of CAAX farnesyltransferase (Q02293 whole entry, one chain of several): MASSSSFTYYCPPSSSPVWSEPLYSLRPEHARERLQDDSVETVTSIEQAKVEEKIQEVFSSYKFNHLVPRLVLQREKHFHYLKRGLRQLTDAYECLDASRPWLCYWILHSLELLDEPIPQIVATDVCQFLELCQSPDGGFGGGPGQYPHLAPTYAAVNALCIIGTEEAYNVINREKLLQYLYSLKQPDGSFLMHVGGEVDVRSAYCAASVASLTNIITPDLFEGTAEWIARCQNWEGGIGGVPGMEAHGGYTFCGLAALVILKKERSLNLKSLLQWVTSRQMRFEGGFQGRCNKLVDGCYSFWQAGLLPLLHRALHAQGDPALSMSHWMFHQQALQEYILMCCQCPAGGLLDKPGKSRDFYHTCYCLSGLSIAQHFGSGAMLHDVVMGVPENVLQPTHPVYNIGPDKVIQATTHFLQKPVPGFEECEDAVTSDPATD

T1 sequence (P53610 whole entry, one chain of several): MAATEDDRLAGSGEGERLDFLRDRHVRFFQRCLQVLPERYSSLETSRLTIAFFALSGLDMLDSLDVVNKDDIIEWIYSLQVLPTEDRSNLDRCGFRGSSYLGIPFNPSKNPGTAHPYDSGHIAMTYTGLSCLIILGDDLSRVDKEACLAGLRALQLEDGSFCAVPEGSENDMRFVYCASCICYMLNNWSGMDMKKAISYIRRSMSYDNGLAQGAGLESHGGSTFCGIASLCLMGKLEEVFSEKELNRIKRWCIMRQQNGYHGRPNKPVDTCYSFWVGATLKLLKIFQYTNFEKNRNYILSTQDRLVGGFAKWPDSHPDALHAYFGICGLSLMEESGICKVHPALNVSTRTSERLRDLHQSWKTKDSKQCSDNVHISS

Take `CC(C)C[C@H](NC(=O)CN1C(=O)C(N(C)C(=O)[C@@H](N)CS)N=C(c2ccccc2)c2ccccc21)C(=O)O` (single isomer, unassigned) [31B, N-[[3-[(2-amino-3-mercapto-1-oxopropyl)methylamino]-2,3-dihydro-2-oxo-5-phenyl-1H -1,4-benzodiazepin-1-yl]acetyl]-L-leucine]: the “fold more sensitivity of CAAX geranylgeranyltransferase to leucine-terminated inhibitor” value on CAAX GG transferase was found to be 5 fold. Further, in assay [1] (250 μM, FIG. 3), the “labeling of Triton-soluble farnesylated proteins (F1 to F3)” value is “markedly decreased the labeling of all three Triton-soluble farnesylated proteins (F1 to F3)”. Moreover, in assay [2], the “labeling of farnesylated lamins (F-NL)” value is “reduced moderately the labeling of the farnesylated lamins”. Further, the “effect on low molecular weight GTP binding proteins (SMG)” value in assay [3] is recorded as “little effect on the low molecular weight GTP binding proteins”.

The term EC50 denotes the concentration at which the effect is half-maximal. In the case of `COC(=O)[C@H](CCSC)NC(=O)CN1C(=O)C(N(C)C(=O)[C@@H](N)CSSC(C)(C)C)N=C(c2ccccc2)c2ccccc21` (stereo partly drawn) [compound 110, N-[[3-[(2-amino-3-tert-butylthiomercapto-1-oxopropyl)methylamino]-2,3-dihydro-2-oxo-5-phenyl-1H-1,4-benzodiazepin-1-yl]acetyl]-L-methionine methyl ester], in assay [1] (Cricetulus griseus, read-out: EC 90% "B isomer"), the EC90 stood at 10 µM. Also, the EC50 is greater than 1.5 µM at CAAX farnesyltransferase (diastereomer A, read-out: EC50 (μM) "A") and greater than 1.5 µM at CAAX farnesyltransferase (diastereomer B, read-out: EC50 (μM) "B").
